This passage reports Solubility and solubility results from patent publication US9593149B2, “Amylin and calcitonin receptor agonist” (Novo Nordisk A/S, priority 2014, dated 2017).

This data set can be described thus: Assay (IV) determination of solubility. Type of data set: physicochemical. As to the method: Assay (IV)—Determination of Solubility
The mimylin peptide was dissolved in water at ˜500 nmol/ml and mixed 1:1 with a series of buffers (100 mM glycylglycine pH 3.0, 100 mM glycylglycine pH 4.0, 100 mM glycylglycine pH 5.0, 100 mM bistrispropane pH 6.0, 100 mM bistrispropane pH 6.5, 100 mM bistrispropane pH 7.0, 100 mM bistrispropane pH 7.5, 100 mM bistrispropane pH 8.0).

In brackets after ≈: the same amount, converted by molar mass. Numbered stars: 1 amine (or outer) side, 2 acyl side, 3 side chain; on linkers, the order of the positions; unused ones are H or OH. Peptide text beside a SMILES is read from it. * marks the point of attachment. C20 diacid = O=C(O)CCCCCCCCCCCCCCCCCCC(=O)*; C18 diacid = O=C(O)CCCCCCCCCCCCCCCCC(=O)*; γGlu = O=C(O)[C@H](CCC(=O)[*:2])N[*:1]

For the compound `CC[C@H](C)[C@H](NC(=O)[C@H](C)NC(=O)[C@@H](NC(=O)[C@H](CO)NC(=O)[C@@H](NC(=O)[C@H](CCC(=O)O)NC(=O)[C@H](CO)NC(=O)[C@H](C)NC(=O)[C@H](CCC(=O)O)NC(=O)CCCCCCCCCCCCCCCCC(=O)O)[C@@H](C)CC)[C@@H](C)O)C(=O)N[C@H](C(=O)NCC(=O)N[C@@H](CCCNC(=N)N)C(=O)N[C@@H](CC(C)C)C(=O)N[C@@H](CO)C(=O)N[C@@H](C)C(=O)N[C@@H](CCC(=O)O)C(=O)N[C@@H](CC(C)C)C(=O)N[C@@H](Cc1cnc[nH]1)C(=O)N[C@@H](CCC(=O)O)C(=O)N[C@H](C(=O)N[C@@H](C)C(=O)N[C@H](C(=O)N[C@@H](CC(C)C)C(=O)N1CCC[C@H]1C(=O)N[C@@H](CCCNC(=N)N)C(=O)N[C@H](C(=O)N[C@@H](CCC(=O)O)C(=O)N[C@H](C(=O)NCC(=O)N1CCC[C@H]1C(=O)N[C@@H](CCC(=O)O)C(=O)N[C@@H](CO)C(=O)N1CCC[C@H]1C(N)=O)[C@@H](C)O)[C@@H](C)O)[C@@H](C)O)[C@@H](C)CC)[C@@H](C)CC` [compound 77, [N-terminal(C18 diacid), 5I, 9I, 10I, 20I]mimylin] ({C18 diacid}-EASEISTAIIGRLSAELHEIATLPRTETGPESP-NH2), the Solubility result runs as follows: (pH 3.0) “≧200 μM”; (pH 6.0) “≧200 μM”; (pH 6.5) “≧200 μM”; (pH 7.0) “≧200 μM”; (pH 7.5) “≧200 μM”; (pH 8.0) “≧200 μM”. This compound also registered a solubility at 18 h (pH 4.0) of 7 µM (≈ 26.4 µg/mL) and a solubility at 18 h (pH 5.0) of 11 µM (≈ 41.5 µg/mL).

Consider `CC(C)C[C@H](NC(=O)CNC(=O)[C@H](CO)NC(=O)[C@H](C)NC(=O)CC[C@H](NC(=O)CCCCCCCCCCCCCCCCCCC(=O)O)C(=O)O)C(=O)N[C@@H](CO)C(=O)N[C@H](C(=O)N[C@@H](C)C(=O)N[C@H](C(=O)N[C@@H](CC(C)C)C(=O)NCC(=O)N[C@@H](CCCNC(=N)N)C(=O)N[C@@H](CC(C)C)C(=O)N[C@@H](CO)C(=O)N[C@@H](C)C(=O)N[C@@H](CCC(=O)O)C(=O)N[C@@H](CC(C)C)C(=O)N[C@@H](Cc1cnc[nH]1)C(=O)N[C@@H](CCC(=O)O)C(=O)N[C@@H](CC(C)C)C(=O)N[C@@H](C)C(=O)N[C@H](C(=O)N[C@@H](Cc1ccc(O)cc1)C(=O)N1CCC[C@H]1C(=O)N[C@@H](CCCNC(=N)N)C(=O)N[C@H](C(=O)N[C@@H](CCC(=O)O)C(=O)N[C@H](C(=O)NCC(=O)N[C@@H](CO)C(=O)NCC(=O)N[C@H](C(=O)N1CCC[C@H]1C(N)=O)[C@@H](C)O)[C@@H](C)O)[C@@H](C)O)[C@@H](C)O)C(C)C)[C@@H](C)O` [compound 98, [N-terminal(C20 diacid-gGlu), des1, 4G, 9V, 23Y, 30S, 31G, 32T]mimylin] ({C20 diacid-γGlu}-ASGLSTAVLGRLSAELHELATYPRTETGSGTP-NH2), for which the Solubility result is “≧200 μM” (pH 3.0); “≧200 μM” (pH 4.0); “≧200 μM” (pH 5.0); “≧200 μM” (pH 6.0); “≧200 μM” (pH 6.5); “≧200 μM” (pH 7.0). Further, the Solubility entry (pH 7.5) is “≧200 μM” and the Solubility entry (pH 8.0) is “≧200 μM”.

On to `CC[C@H](C)[C@H](NC(=O)[C@H](CCC(=O)O)NC(=O)[C@H](Cc1cnc[nH]1)NC(=O)[C@H](CC(C)C)NC(=O)[C@H](CCC(=O)O)NC(=O)[C@H](C)NC(=O)[C@H](CO)NC(=O)[C@H](CC(C)C)NC(=O)[C@H](CCCNC(=N)N)NC(=O)CNC(=O)[C@H](CC(C)C)NC(=O)[C@H](C)NC(=O)[C@H](C)NC(=O)[C@@H](NC(=O)[C@H](CO)NC(=O)[C@H](CC(C)C)NC(=O)[C@H](CCC(=O)O)NC(=O)[C@H](CO)NC(=O)[C@H](C)NC(=O)[C@H](CCC(=O)O)NC(=O)CCCCCCCCCCCCCCCCC(=O)O)[C@@H](C)O)C(=O)N[C@@H](C)C(=O)N[C@H](C(=O)N[C@@H](CC(C)C)C(=O)N1CCC[C@H]1C(=O)N[C@@H](CCCNC(=N)N)C(=O)N[C@H](C(=O)N[C@@H](CCC(=O)O)C(=O)N[C@H](C(=O)NCC(=O)N1CCC[C@H]1C(=O)N[C@@H](CCC(=O)O)C(=O)N[C@@H](CO)C(=O)N1CCC[C@H]1C(N)=O)[C@@H](C)O)[C@@H](C)O)[C@@H](C)O` [compound 12, [N-terminal(C18 diacid), 20I]mimylin] ({C18 diacid}-EASELSTAALGRLSAELHEIATLPRTETGPESP-NH2), for which the Solubility entry runs as follows: (pH 3.0) “≧200 μM”; (pH 4.0) “≧200 μM”; (pH 5.0) “≧200 μM”; (pH 6.0) “≧200 μM”; (pH 6.5) “≧200 μM”; (pH 7.0) “≧200 μM”. Besides, the Solubility entry is, setting by setting: (pH 7.5) “≧200 μM”; (pH 8.0) “≧200 μM”.

`CC(C)C[C@H](NC(=O)[C@H](CCC(=O)O)NC(=O)[C@H](Cc1cnc[nH]1)NC(=O)[C@H](CC(C)C)NC(=O)[C@H](CCC(=O)O)NC(=O)[C@H](C)NC(=O)[C@H](CO)NC(=O)[C@H](CC(C)C)NC(=O)[C@H](CCCNC(=N)N)NC(=O)CNC(=O)[C@H](CC(C)C)NC(=O)[C@@H](NC(=O)[C@H](C)NC(=O)[C@@H](NC(=O)[C@H](CO)NC(=O)[C@H](CC(C)C)NC(=O)[C@H](CCC(=O)O)NC(=O)[C@H](CO)NC(=O)[C@@H]1CCCN1C(=O)[C@H](CCC(=O)O)NC(=O)CCCCCCCCCCCCCCCCC(=O)O)[C@@H](C)O)C(C)C)C(=O)N[C@@H](C)C(=O)N[C@H](C(=O)N[C@@H](CC(C)C)C(=O)N1CCC[C@H]1C(=O)N[C@@H](CCCNC(=N)N)C(=O)N[C@H](C(=O)N[C@@H](CCC(=O)O)C(=O)N[C@H](C(=O)NCC(=O)N1CCC[C@H]1C(=O)N[C@@H](CCC(=O)O)C(=O)N[C@@H](CO)C(=O)N1CCC[C@H]1C(N)=O)[C@@H](C)O)[C@@H](C)O)[C@@H](C)O` [compound 28, [N-terminal(C18 diacid), 2P, 9V]mimylin] ({C18 diacid}-EPSELSTAVLGRLSAELHELATLPRTETGPESP-NH2): the Solubility result (pH 3.0) is recorded as “≧200 μM”; the Solubility entry (pH 4.0) is given as “≧200 μM”; the Solubility entry (pH 5.0) is “≧200 μM”; the Solubility entry (pH 6.0) is given as “≧200 μM”; the Solubility entry (pH 6.5) is “≧200 μM”; the Solubility entry (pH 7.0) is reported as “≧200 μM”. Besides, the Solubility result was “≧200 μM” (pH 7.5) and “≧200 μM” (pH 8.0).

`CC(C)C[C@H](NC(=O)CNC(=O)[C@H](CO)NC(=O)[C@H](CC(C)C)NC(=O)[C@H](CCC(=O)O)NC(=O)CC[C@H](NC(=O)CCCCCCCCCCCCCCCCCCC(=O)O)C(=O)O)C(=O)N[C@@H](CO)C(=O)N[C@H](C(=O)N[C@@H](CC(C)C)C(=O)N[C@H](C(=O)N[C@@H](CC(C)C)C(=O)NCC(=O)N[C@@H](CCCNC(=N)N)C(=O)N[C@@H](CC(C)C)C(=O)N[C@@H](CO)C(=O)N[C@@H](CCC(N)=O)C(=O)N[C@@H](CCC(=O)O)C(=O)N[C@@H](CC(C)C)C(=O)N[C@@H](Cc1cnc[nH]1)C(=O)N[C@@H](CCC(=O)O)C(=O)N[C@@H](CC(C)C)C(=O)N[C@@H](CCC(N)=O)C(=O)N[C@H](C(=O)N[C@@H](Cc1ccc(O)cc1)C(=O)N1CCC[C@H]1C(=O)N[C@@H](CCCNC(=N)N)C(=O)N[C@H](C(=O)NCC(=O)N[C@H](C(=O)NCC(=O)N[C@@H](CO)C(=O)NCC(=O)N[C@H](C(=O)N[C@@H](Cc1ccc(O)cc1)C(N)=O)[C@@H](C)O)[C@@H](C)O)[C@@H](C)O)[C@@H](C)O)C(C)C)[C@@H](C)O` [compound 129, [N-terminal(C20 diacid-gGlu), 2L, 4G, 8L, 9V, 15Q, 21Q, 23Y, 27G, 30S, 31G, 32T, 33Y]mimylin] ({C20 diacid-γGlu}-ELSGLSTLVLGRLSQELHELQTYPRTGTGSGTY-NH2): the Solubility result (pH 3.0) is “≧200 μM” and the Solubility entry (pH 4.0) is on record as “≧200 μM”. Further, the solubility at 18 h by setting is: (pH 5.0) 1 µM (≈ 4.02 µg/mL); (pH 6.0) 1 µM (≈ 4.02 µg/mL); (pH 6.5) 1 µM (≈ 4.02 µg/mL); (pH 7.0) 1 µM (≈ 4.02 µg/mL); (pH 7.5) 52 µM (≈ 209 µg/mL); (pH 8.0) 185 µM (≈ 743 µg/mL).

For the compound `CC(C)C[C@H](NC(=O)[C@H](C)NC(=O)[C@H](C)NC(=O)[C@@H](NC(=O)[C@H](CO)NC(=O)[C@H](CC(C)C)NC(=O)[C@H](CCC(=O)O)NC(=O)[C@H](CO)NC(=O)[C@H](C)NC(=O)CC[C@H](NC(=O)CCCCCCCCCCCCCCCCCCC(=O)O)C(=O)O)[C@@H](C)O)C(=O)NCC(=O)N[C@@H](CCCNC(=N)N)C(=O)N[C@@H](CC(C)C)C(=O)N[C@@H](CO)C(=O)N[C@@H](C)C(=O)N[C@@H](CCC(=O)O)C(=O)N[C@@H](CC(C)C)C(=O)N[C@@H](Cc1cnc[nH]1)C(=O)N[C@@H](CCC(=O)O)C(=O)N[C@@H](CC(C)C)C(=O)N[C@@H](C)C(=O)N[C@H](C(=O)N[C@@H](Cc1ccc(O)cc1)C(=O)N1CCC[C@H]1C(=O)N[C@@H](CCCNC(=N)N)C(=O)N[C@H](C(=O)N[C@@H](CCC(=O)O)C(=O)N[C@H](C(=O)NCC(=O)N[C@@H](CO)C(=O)NCC(=O)N[C@@H](CO)C(=O)N[C@@H](Cc1ccc(O)cc1)C(N)=O)[C@@H](C)O)[C@@H](C)O)[C@@H](C)O` [compound 80, [N-terminal(C20 diacid-gGlu), des1, 23Y, 30S, 31G, 33Y]mimylin] ({C20 diacid-γGlu}-ASELSTAALGRLSAELHELATYPRTETGSGSY-NH2), the Solubility result (pH 3.0) is “≧200 μM”; the Solubility result (pH 4.0) is on record as “≧200 μM”; the Solubility result (pH 6.0) was “≧200 μM”; the Solubility result (pH 6.5) is “≧200 μM”; the Solubility entry (pH 7.0) is given as “≧200 μM”; the Solubility result (pH 7.5) is given as “≧200 μM”. Further, where the note is “pH 8.0”, the Solubility result is “≧200 μM”. Further, the solubility at 18 h (pH 5.0) came out at 10 µM (≈ 37.9 µg/mL).
